Test results published in ChEMBL document CHEMBL3826929, “Discovery and Preclinical Evaluation of BMS-711939, an Oxybenzylglycine Based PPARα Selective Agonist” (ACS Med Chem Lett, 2016).

How the values were obtained:
[1] = target: T1, Peroxisome proliferator-activated receptor alpha (Homo sapiens) (UniProt Q07869); assay: Intrinsic activity at PPAR-alpha (unknown origin) relative to fenofibric acid
T1 sequence (whole entry): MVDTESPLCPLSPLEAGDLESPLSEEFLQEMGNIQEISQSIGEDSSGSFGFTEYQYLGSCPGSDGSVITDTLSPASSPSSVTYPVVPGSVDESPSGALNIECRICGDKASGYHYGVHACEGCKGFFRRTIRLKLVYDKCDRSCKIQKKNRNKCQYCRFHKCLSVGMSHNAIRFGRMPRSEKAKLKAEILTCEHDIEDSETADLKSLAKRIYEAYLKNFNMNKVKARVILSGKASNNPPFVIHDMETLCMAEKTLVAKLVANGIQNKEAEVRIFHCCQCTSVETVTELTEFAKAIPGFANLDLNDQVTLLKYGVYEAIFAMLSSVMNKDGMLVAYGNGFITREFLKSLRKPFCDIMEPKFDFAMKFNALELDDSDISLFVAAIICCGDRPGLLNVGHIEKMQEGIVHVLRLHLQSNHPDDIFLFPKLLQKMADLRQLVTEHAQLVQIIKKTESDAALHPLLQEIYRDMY

[2] = target: T2, Peroxisome proliferator-activated receptor alpha (Homo sapiens, UniProt Q07869); assay: Agonist activity at Gal4-tagged human PPAR-alpha expressed in HEK cells by transactivation assay; type: cell-based, HEK293
T2 sequence (Q07869 whole entry): T1 sequence (whole entry)

[3] = target: T3, Peroxisome proliferator-activated receptor gamma (Homo sapiens, UniProt P37231); assay: Agonist activity at Gal4-tagged human PPAR-gamma expressed in HEK cells by transactivation assay; type: cell-based, HEK293
T3 sequence (P37231 whole entry): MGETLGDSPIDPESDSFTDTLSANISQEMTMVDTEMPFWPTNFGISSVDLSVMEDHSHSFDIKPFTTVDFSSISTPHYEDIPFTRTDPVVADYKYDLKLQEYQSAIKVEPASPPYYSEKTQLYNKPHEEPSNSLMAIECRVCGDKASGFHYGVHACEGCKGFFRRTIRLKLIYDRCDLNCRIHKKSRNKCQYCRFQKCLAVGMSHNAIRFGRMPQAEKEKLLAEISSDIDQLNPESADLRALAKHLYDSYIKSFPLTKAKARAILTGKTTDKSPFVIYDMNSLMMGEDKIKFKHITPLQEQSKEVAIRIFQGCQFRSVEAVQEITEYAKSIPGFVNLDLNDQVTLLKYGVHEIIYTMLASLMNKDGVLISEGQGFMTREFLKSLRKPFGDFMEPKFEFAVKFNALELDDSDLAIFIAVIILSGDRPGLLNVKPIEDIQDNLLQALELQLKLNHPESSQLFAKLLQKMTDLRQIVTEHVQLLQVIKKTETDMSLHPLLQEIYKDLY

HEK293 = assay: Selectivity ratio of EC50 for Gal4-tagged human PPAR-gamma expressed in HEK cells to EC50 for Gal4-tagged human PPAR-alpha expressed in HEK cells; type: cell-based
Syrian golden hamster [4] = assay: Decrease in liver triglyceride level in high fat-diet fed syrian golden hamster model of dyslipidemia at 10 mg/kg administered qd through oral gavage measured after 21 days by FPLC analysis relative to control; type: functional, Mesocricetus auratus; parameters: scale not given: the % may be the effect or the level left
Syrian golden hamster [5] = assay: Decrease in liver triglyceride level in high fat-diet fed syrian golden hamster model of dyslipidemia at 3 mg/kg administered qd through oral gavage measured after 21 days by FPLC analysis relative to control; type: functional, Mesocricetus auratus; parameters: scale not given: the % may be the effect or the level left
Syrian golden hamster [6] = assay: Decrease in liver triglyceride level in high fat-diet fed syrian golden hamster model of dyslipidemia at 1 mg/kg administered qd through oral gavage measured after 21 days by FPLC analysis relative to control; type: functional, Mesocricetus auratus; parameters: scale not given: the % may be the effect or the level left
Syrian golden hamster [7] = assay: Decrease in liver cholesterol level in high fat-diet fed syrian golden hamster model of dyslipidemia at 10 mg/kg administered qd through oral gavage measured after 21 days by FPLC analysis relative to control; type: functional, Mesocricetus auratus; parameters: scale not given: the % may be the effect or the level left
Syrian golden hamster [8] = assay: Decrease in liver cholesterol level in high fat-diet fed syrian golden hamster model of dyslipidemia at 3 mg/kg administered qd through oral gavage measured after 21 days by FPLC analysis relative to control; type: functional, Mesocricetus auratus; parameters: scale not given: the % may be the effect or the level left
Syrian golden hamster [9] = assay: Decrease in liver cholesterol level in high fat-diet fed syrian golden hamster model of dyslipidemia at 1 mg/kg administered qd through oral gavage measured after 21 days by FPLC analysis relative to control; type: functional, Mesocricetus auratus; parameters: scale not given: the % may be the effect or the level left
Syrian golden hamster [10] = assay: Decrease in plasma LDL cholesterol level in high fat-diet fed syrian golden hamster model of dyslipidemia administered qd through oral gavage measured after 21 days by FPLC analysis relative to control; type: functional, organism-based; settings: Mesocricetus auratus
Syrian golden hamster [11] = assay: Decrease in plasma LDL cholesterol level in high fat-diet fed syrian golden hamster model of dyslipidemia at 10 mg/kg administered qd through oral gavage measured after 21 days by FPLC analysis relative to control; type: functional, Mesocricetus auratus; parameters: scale not given: the % may be the effect or the level left
Syrian golden hamster [12] = assay: Decrease in plasma LDL cholesterol level in high fat-diet fed syrian golden hamster model of dyslipidemia at 3 mg/kg administered qd through oral gavage measured after 21 days by FPLC analysis relative to control; type: functional, Mesocricetus auratus; parameters: scale not given: the % may be the effect or the level left
Syrian golden hamster [13] = assay: Decrease in plasma triglyceride level in high fat-diet fed syrian golden hamster model of dyslipidemia at 10 mg/kg administered qd through oral gavage measured after 21 days by FPLC analysis relative to control; type: functional, Mesocricetus auratus; parameters: scale not given: the % may be the effect or the level left
Syrian golden hamster [14] = assay: Decrease in plasma triglyceride level in high fat-diet fed syrian golden hamster model of dyslipidemia at 3 mg/kg administered qd through oral gavage measured after 21 days by FPLC analysis relative to control; type: functional, Mesocricetus auratus; parameters: scale not given: the % may be the effect or the level left
Syrian golden hamster [15] = assay: Decrease in plasma triglyceride level in high fat-diet fed syrian golden hamster model of dyslipidemia at 1 mg/kg administered qd through oral gavage measured after 21 days by FPLC analysis relative to control; type: functional, Mesocricetus auratus; parameters: scale not given: the % may be the effect or the level left
Syrian golden hamster [16] = assay: Effect on plasma LDL cholesterol level in high fat-diet fed syrian golden hamster model of dyslipidemia at 1 mg/kg administered qd through oral gavage measured after 21 days by FPLC analysis (reference value: 91.7 +/- 8.1 mg/dl); type: functional, Mesocricetus auratus
Syrian golden hamster [17] = assay: Increase in liver cholesterol level in high fat-diet fed syrian golden hamster model of dyslipidemia at 1 mg/kg administered qd through oral gavage measured after 21 days by FPLC analysis relative to control; type: functional, Mesocricetus auratus
Syrian golden hamster [18] = assay: Decrease in liver triglyceride level in high fat-diet fed syrian golden hamster model of dyslipidemia administered qd through oral gavage measured after 21 days by FPLC analysis; type: functional, organism-based; settings: Mesocricetus auratus
[19] = target: T2, Peroxisome proliferator-activated receptor alpha; assay: Binding affinity to human GST-tagged PPAR-alpha LBD expressed in Escherichia coli BL21 (DE3) PlysS after 30 mins in presence of fluorescein ligand FLA-A by fluorescence polarization assay
[20] = target: T3, Peroxisome proliferator-activated receptor gamma; assay: Binding affinity to human GST-tagged PPAR-gamma LBD expressed in Escherichia coli BL21 after 30 mins in presence of fluorescein ligand FLA-A by fluorescence polarization assay
Mus musculus [21] = assay: Increase in ApoA1 level in transgenic mouse expressing human ApoA1 at 100 mg/kg administered qd through oral gavage measured after 10 days relative to vehicle-treated control; type: functional
Mus musculus [22] = assay: Decrease in triglyceride level in transgenic mouse expressing human ApoA1 at 100 mg/kg administered qd through oral gavage measured after 10 days relative to vehicle control; type: functional; parameters: scale not given: the % may be the effect or the level left
Mus musculus [23] = assay: Increase in HDL cholesterol level in transgenic mouse expressing human ApoA1 at 100 mg/kg administered qd through oral gavage measured after 10 days relative to vehicle control; type: functional

| Compound | Intrinsic activity [1] [%] | EC50 [2] [nM] | EC50 [3] [nM] | Ratio EC50 (HEK293) | further results |
| --- | --- | --- | --- | --- | --- |
| COC(=O)N(CC(=O)O)Cc1cc(OCc2nc(-c3ccc(OC(F)(F)F)cc3)oc2C)ccc1F | > 50 | 4.3 | 2380 | 556 | – |
| COC(=O)N(CC(=O)O)Cc1cccc(OCc2nc(-c3ccc(Cl)cc3)oc2C)c1 | – | – | – | – | Activity (Syrian golden hamster [4]): 23%; Activity (Syrian golden hamster [5]): 17%; Activity (Syrian golden hamster [6]): 6%; Activity (Syrian golden hamster [7]): 40.8%; Activity (Syrian golden hamster [8]): 15.4%; Activity (Syrian golden hamster [9]): -22%; Activity (Syrian golden hamster [10]): Dose-dependent effect; Activity (Syrian golden hamster [11]): 60%; Activity (Syrian golden hamster [12]): 46%; Activity (Syrian golden hamster [13]): 77%; Activity (Syrian golden hamster [14]): 45%; Activity (Syrian golden hamster [15]): 40%; Activity (Syrian golden hamster [16]): 89.3 mg/dL; Activity (Syrian golden hamster [17]): 22%; Activity (Syrian golden hamster [18]): Dose-dependent effect |
| COC(=O)N(CC(=O)O)Cc1ccc(F)c(OCc2nc(-c3ccc(Cl)cc3)oc2C)c1 | > 50 | 94 | 9170 | 98 | IC50 [19]: 1560 nM; IC50 [20]: > 15000 nM |
| COC(=O)N(CC(=O)O)Cc1cc(OCc2nc(-c3ccc(F)cc3)oc2C)ccc1F | > 50 | 14.5 | 10000 | 691 | – |
| CCOC(=O)N(CC(=O)O)Cc1cc(OCc2nc(-c3ccc(Cl)cc3)oc2C)ccc1F | > 50 | 4 | 4270 | 1080 | – |
| CCCOC(=O)N(CC(=O)O)Cc1cc(OCc2nc(-c3ccc(Cl)cc3)oc2C)ccc1F | > 50 | 3.4 | 2010 | 594 | – |
| COC(=O)N(CC(=O)O)Cc1cc(OCc2nc(-c3ccccc3)oc2C)ccc1F | > 50 | 59 | 8610 | 146 | – |
| COC(=O)N(CC(=O)O)[C@@H](C)c1cccc(OCc2nc(-c3ccc(Cl)cc3)oc2C)c1 | > 50 | 8.6 | 2860 | 332 | IC50 [19]: 671 nM; IC50 [20]: > 15000 nM |
| COc1ccc(OC(=O)N(CC(=O)O)Cc2cc(OCc3nc(-c4ccc(Cl)cc4)oc3C)ccc2F)cc1 | > 50 | 6.8 | 1090 | 160 | – |
| COC(=O)N(CC(=O)O)Cc1cc(OCc2nc(-c3ccc(C(C)(C)C)cc3)oc2C)ccc1F | > 50 | 2.7 | 414 | 154 | – |
| COC(=O)N(CC(=O)O)Cc1cc(F)cc(OCc2nc(-c3ccc(Cl)cc3)oc2C)c1 | > 50 | 18 | 2820 | 157 | IC50 [19]: 1340 nM; IC50 [20]: > 15000 nM |
| CC(C)OC(=O)C(C)(C)Oc1ccc(C(=O)c2ccc(Cl)cc2)cc1 [FENOFIBRATE] | – | – | – | – | Activity (Mus musculus [21]): 665%; Activity (Mus musculus [22]): 32.5%; Activity (Mus musculus [23]): 88% |
| COC(=O)N(CC(=O)O)Cc1cc(OCc2nc(-c3ccc(C(F)(F)F)cc3)oc2C)ccc1F | > 50 | 3.6 | 2060 | 566 | – |
| COC(=O)N(CC(=O)O)Cc1cc(OCc2nc(-c3ccc(S(C)(=O)=O)cc3)oc2C)ccc1F | > 50 | > 2500 | > 25000 | – | – |
| Cc1oc(-c2ccc(Cl)cc2)nc1COc1ccc(F)c(CN(CC(=O)O)C(=O)OCCCF)c1 | > 50 | 10.6 | 4380 | 413 | – |
| COC(=O)N(CC(=O)O)Cc1cc(OCc2nc(-c3ccc(C)cc3)oc2C)ccc1F | > 50 | 2.8 | 2180 | 787 | – |
| Cc1oc(-c2ccc(Cl)cc2)nc1COc1ccc(F)c(CN(CC(=O)O)C(=O)OCC(C)C)c1 | > 50 | 2.3 | 1500 | 666 | – |
| CCCCOC(=O)N(CC(=O)O)Cc1cc(OCc2nc(-c3ccc(Cl)cc3)oc2C)ccc1F | > 50 | 2.8 | 1240 | 435 | – |
| Cc1ccc(OC(=O)N(CC(=O)O)Cc2cc(OCc3nc(-c4ccc(Cl)cc4)oc3C)ccc2F)cc1 | > 50 | 5.6 | 1260 | 224 | – |
